Results reported in patent US8680150B2, “Small molecule hematopoietic growth factor mimetic compounds that activate hematopoietic growth factor receptors” (Ligand Pharmaceuticals, Inc., priority 2009, dated 2014).

System: UT7/EPO Cell line
Assay: Cell proliferation assay in UT7/EPO cell line (ViaLight Plus)
Assay type: cell-based, human
Conditions: compound at 10 uM, efficacy relative to EPO (100%), UT7/EPO cells expressing endogenous EPO receptor, starved of EPO overnight, 72 hours at 37° C.
Procedure: The primary testing for the exemplified compounds was performed in UT7/EPO Cell line. UT7/EPO is human leukemia cell line, obtained from Dr. Norio Komatsu (Blood, Vol 82 (2), pp 456-464, 1993). These cells express endogenous EPO receptor and are dependant upon EPO for growth and proliferation. Briefly, the cells were starved of EPO overnight and plated in 96 or 384 well plates. The compounds were added to the cells at 10 uM concentration. The plates were then incubated at 37° C. for 72 hours. The proliferative effect of the compounds was measured by a commercially available kit from Lonza (ViaLight Plus).

Row | SMILES | Activity (%) | Activity (%) (10 µM)
1 | CN(C)c1ccc(C(=O)N/N=C/c2cccc(N(C)C)c2)cc1 [Compound 177, 4-Dimethylaminobenz(3-dimethylaminobenzylidene)hydrazide] | 9.1 | 
2 | COc1cccc(/C=N/NC(=O)c2ccc(OCc3ccc(C)cc3)cc2)c1 [Compound 134, 4-(4-Methylbenzyloxy)benz(3-methoxybenzylidene)hydrazide] | 14 | 
3 | COc1ccc(O)c(/C=N/NC(=O)c2cc3cc(O)ccc3o2)c1 [Compound 174, 5-Hydroxybenzofuran-2-carboxyl(2-hydroxy-5-methoxybenzylidene)hydrazide] | 19 | 
4 | CN(C)c1ccc(C(=O)N/N=C/c2cccc(COCc3ccccc3)c2)cc1 [Compound 184, 4-Dimethylaminobenz(3-benzyloxymethylbenzylidene)hydrazide] | 21 | 
5 | O=C(N/N=C/c1ccc2ccccc2c1)c1ccc(O)cc1 [Compound 126, 4-Hydroxybenz(2-naphthylidene)hydrazide] | 3.4 | 
6 | COc1cccc(/C=N/NC(=O)c2ccc(N(C)C)cc2)c1 [Compound 168, 4-Dimethylaminobenz(3-methoxybenzylidene)hydrazide] |  | 11
7 | COc1ccc(/C=N/NC(=O)c2ccc(OCc3ccc(C)cc3)cc2)cc1OC [Compound 138, 4-(4-Methylbenzyloxy)benz(3,4-dimethoxybenzylidene)hydrazide] | 18 | 
8 | COc1cc(/C=N/NC(=O)c2ccc(-c3ccccc3)cc2)ccc1O [Compound 144, 4-Phenylbenz(4-hydroxy-3-methoxybenzylidene)hydrazide] | 15 | 
9 | COc1cccc(/C=N/NC(=O)c2ccc(OCc3ccc(C(F)(F)F)cc3)cc2)c1 [Compound 154, 4-(4-Trifluoromethylbenzyloxy)benz(3-methoxybenzylidene)hydrazide] | 6.7 | 
10 | CC(=O)c1cccc(/C=N/NC(=O)c2ccc(-c3ccccc3)cc2)c1 [Compound 165, 4-Phenylbenz(3-acetylbenzylidene)hydrazide] | 14 | 
11 | COc1cc(/C=N/NC(=O)c2ccc(OCc3ccc(Cl)cc3)cc2)ccc1O [Compound 141, 4-(4-Chlorobenzyloxy)benz(4-hydroxy-3-methoxybenzylidene)hydrazide] | 17 | 
12 | COc1ccc(/C=N/NC(=O)c2ccc(N3CCCC3=O)cc2)cc1OC [Compound 132, 4-(2-Oxopyrrolidino-1-)benz(3,4-dimethoxybenzylidene)hydrazide] | 8.7 | 
13 | Cc1ccccc1COCc1cccc(/C=N/NC(=O)c2ccc(N(C)C)cc2)c1 [Compound 188, 4-Dimethylaminobenz(3-(2-methylbenzyloxy)methylbenzylidene)hydrazide] | 5.5 | 
14 | COc1ccc(/C=N/NC(=O)c2ccc(OCc3ccc(Cl)cc3)cc2)cc1OC [Compound 137, 4-(4-Chlorobenzyloxy)benz(3,4-dimethoxybenzylidene)hydrazide] | 12 | 
15 | CN(C)c1ccc(C(=O)N/N=C/c2cccc(/C=C/c3ccccc3Cl)c2)cc1 [Compound 185, 4-Dimethylaminobenz(2E-(2-chlorophenyl)ethenylbenzylidene)hydrazide] | 16 | 
16 | O=C(/C=C/c1ccc(-c2ccccc2)cc1)N/N=C/c1ccc(OCCO)cc1 [Compound 198, 2E-(4-Phenylphenyl)acryl(4-(2-hydroxyethoxy)benzylidene)hydrazide] | 4.6 | 
17 | COc1ccc(C(=O)N/N=C/c2cccc(OC)c2)cc1 [Compound 128, 4-Methoxybenz(3-methoxybenzylidene)hydrazide] | 5.6 | 
18 | CN(C)c1ccc(C(=O)N/N=C/c2ccc3c(Cl)c[nH]c3c2)cc1 [Compound 180, 4-Dimethylaminobenz(3-chloro-6-indolidene)hydrazide] | 3.2 | 
19 | COc1ccc(COc2ccc(C(=O)N/N=C/c3cccc(OC)c3)cc2)cc1 [Compound 152, 4-(4-Methoxybenzyloxy)benz(3-methoxybenzylidene)hydrazide] | 6.9 | 
20 | CCNC(=O)/C=C/c1cccc(/C=N/NC(=O)c2ccc(N(C)C)cc2)c1 [Compound 179, 4-Dimethylaminobenz(2E-ethylaminocarboxyethenylbenzylidene)hydrazide] | 4.3 | 
21 | COc1cccc(/C=N/NC(=O)c2ccc(OCc3ccc(Cl)cc3)cc2)c1 [Compound 133, 4-(4-Chlorobenzyloxy)benz(3-methoxybenzylidene)hydrazide] | 14 | 
22 | CN(C)c1ccc(C(=O)N/N=C/c2cccc(/C=C/c3ccc(Cl)cc3)c2)cc1 [Compound 186, 4-Dimethylaminobenz(2E-(4-chlorophenyl)ethenylbenzylidene)hydrazide] | 9.6 | 
